The source of these data is patent publication US9200253B1, “Method of producing erythrocytes” (Anthrogenesis Corporation, priority 2007, dated 2015).

Assay [1] has as its system human UCB derived CD34+ cells. Nature of the assay: Ex-vivo expansion of CD34+ cells in short-term serum-free, cytokine supplemented culture. Format: cell-based. Conditions: for CD34+ phenotype in the expanded population: control 10-30%; for total nucleated cell expansion: not impacted vs control. How it is done: The ability of pomalidomide to enhance the expansion of human UCB derived CD34^+ cells in a short-term serum-free, cytokine supplemented culture system was evaluated. CD34^+ progenitor cells were enriched from cryopreserved UCB units to >90% purity and seeded (10^4 CD34^+ cells) in 1 mL of growth medium, which consists of IMDM plus serum substitute BIT (BSA, recombinant human insulin and transferrin, 20%), in the presence of SCF (50 ng/mL), Flt-3 ligand (50 ng/mL), and IL-3 (10 ng/mL). Pomalidomide, dissolved in DMSO, was supplemented at 2.7 μg/mL. The culture was incubated at 37° C., 5% CO2 for 12 days, with fresh medium added at day 7. Pomalidomide-free cultures with or without DMSO (0.05% v/v) were used as controls.

Assay [2] has as its system Pomalidomide-expanded CD34+ cells. Nature of the assay: Cumulative colony forming units of expanded CD34+ cells. It counts as cell-based, human.
Assay [3] has as its system CD34+ cells. The assay is described as follows: Scaled-up CD34+ expansion in gas-permeable fluorocarbon culture bag. Format: cell-based, human. How it is done:
CD34^+ cells were seeded in 10^4/mL pomalidomide-supplemented medium in a flexible, gas-permeable fluorocarbon culture bag (American Fluoroseal). After 7 days of incubation, the culture was centrifuged and exchanged with fresh pomalidomide-supplemented medium at three times the initial volume. By day 12, TNC and CD34^+ expansion were 350 (range: 250-700) and 200 (range: 100-450) fold, respectively (FIG. 3). Viability was 86% (range: 80-90%) by trypan blue. A total of 20 million CD34^+ cells were harvested.

The mark [4] stands for this setting: first experiment, 2.7 μg/mL, 12 days.
Setting [5] is: day 12, seeded 10^4/mL, medium exchanged day 7 (FIG. 3).

Structures are written as SMILES.

On to `Nc1cccc2c1C(=O)N(C1CCC(=O)NC1=O)C2=O` (centres unmarked) [pomalidomide, 4-(Amino)-2-(2,6-dioxo(3-piperidyl))-isoindoline-1,3-dione], for which the “CD38 expression on cultured cells” value is “appeared to down-regulate CD38 expression” in assay [1] (setting [4]) and “appeared to down-regulate CD38 expression” in assay [1] (second, similar experiment). The “CD38 negative fraction of expanded CD34+ cells” value in assay [1] (setting [4]) is 95%; in assay [1] (second, similar experiment) it was 97%. The “CD34+ phenotype in the expanded population” value is 40-60% in assay [1] (setting [4]) and 40-60% in assay [1] (second, similar experiment (FIG. 2)). The “CD133 level on expanded CD34+ cells” value in assay [1] (first experiment, 2.7 μg/mL, 12 days, control 40%) is on record as 15%; in assay [1] (second, similar experiment, control 32.3%) it was 11.5%. The “total nucleated cell expansion” value in assay [1] (first experiment, pomalidomide 2.7 μg/mL, 12 days) is listed as 200-350 fold; in assay [1] (second, similar experiment, 2.7 μg/mL, 12 days) it was 200-350 fold. Moreover, the “cumulative colony forming units relative to expanded controls” value in assay [2] (first experiment) is “substantial improvement”; in assay [2] (second, similar experiment) it was “substantial improvement”. The “Viability by trypan blue” value in assay [3] (day 12) came out at 86%. Moreover, the “total CD34+ cells harvested” value in assay [3] (day 12) came to 20 million. The “CD34+ expansion” value in assay [3] (setting [5]) is recorded as 200 (range: 100-450) fold. The TNC expansion in assay [3] (setting [5]) is given as 350 (range: 250-700) fold. In addition, the “ex-vivo expansion of placental derived CD34+ progenitors” value in assay [3] (overall conclusion) is recorded as “significantly enhanced”.
